Measurements from paper PMC3961306, “Comparison of the Cancer Gene Targeting and Biochemical Selectivities of All Targeted Kinase Inhibitors Approved for Clinical Use” (PLoS ONE, 2014).

Columns and labels:
Experiment in all cases: Kinase profiling in a biochemical assay panel (mobility shift assays and ELISA), %-inhibition at 1 μM; selectivity entropy
[1] = target: panel of more than 300 wild-type and mutant kinases (313 kinase panel) (Homo sapiens, UniProt P42684)
[2] = target: T1, panel of more than 300 wild-type and mutant kinases (313 kinase panel) (Homo sapiens, UniProt Q99759)
T1 sequence (Q99759 1-626): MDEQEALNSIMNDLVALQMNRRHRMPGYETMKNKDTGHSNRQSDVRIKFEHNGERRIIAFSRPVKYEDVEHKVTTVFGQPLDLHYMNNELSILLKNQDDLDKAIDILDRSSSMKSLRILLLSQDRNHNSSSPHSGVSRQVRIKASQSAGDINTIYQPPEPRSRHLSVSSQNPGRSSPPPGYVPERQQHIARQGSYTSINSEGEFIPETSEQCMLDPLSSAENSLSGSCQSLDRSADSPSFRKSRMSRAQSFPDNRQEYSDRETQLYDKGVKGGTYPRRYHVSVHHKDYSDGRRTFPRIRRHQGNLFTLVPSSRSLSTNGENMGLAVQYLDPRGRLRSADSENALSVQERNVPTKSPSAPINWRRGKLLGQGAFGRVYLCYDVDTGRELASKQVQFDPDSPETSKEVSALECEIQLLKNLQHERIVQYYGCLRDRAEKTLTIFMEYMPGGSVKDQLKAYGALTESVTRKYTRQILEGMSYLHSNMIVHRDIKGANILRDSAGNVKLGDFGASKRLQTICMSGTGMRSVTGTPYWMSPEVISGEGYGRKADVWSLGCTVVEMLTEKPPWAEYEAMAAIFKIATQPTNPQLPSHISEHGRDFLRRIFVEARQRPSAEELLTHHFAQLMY

[3] = target: T2, panel of more than 300 wild-type and mutant kinases (313 kinase panel) (Homo sapiens, UniProt Q9NRA0)
T2 sequence (Q9NRA0 1-654): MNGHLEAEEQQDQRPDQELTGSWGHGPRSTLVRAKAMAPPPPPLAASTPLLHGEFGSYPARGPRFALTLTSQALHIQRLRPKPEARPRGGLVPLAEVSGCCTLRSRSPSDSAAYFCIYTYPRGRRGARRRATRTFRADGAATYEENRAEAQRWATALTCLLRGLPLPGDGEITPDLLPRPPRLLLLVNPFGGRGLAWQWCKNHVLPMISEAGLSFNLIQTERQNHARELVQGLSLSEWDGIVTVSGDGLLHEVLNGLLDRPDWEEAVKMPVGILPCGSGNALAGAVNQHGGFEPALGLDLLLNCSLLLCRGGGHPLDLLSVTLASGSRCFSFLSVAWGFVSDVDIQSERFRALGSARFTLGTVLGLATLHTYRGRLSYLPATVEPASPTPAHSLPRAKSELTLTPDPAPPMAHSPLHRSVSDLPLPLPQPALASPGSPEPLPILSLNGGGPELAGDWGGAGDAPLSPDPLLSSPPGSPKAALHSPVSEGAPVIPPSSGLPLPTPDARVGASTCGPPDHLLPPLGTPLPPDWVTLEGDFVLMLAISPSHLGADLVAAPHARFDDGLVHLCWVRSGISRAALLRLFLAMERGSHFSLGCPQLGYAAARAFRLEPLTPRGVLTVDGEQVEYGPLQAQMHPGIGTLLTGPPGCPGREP

[4] = target: panel of more than 300 wild-type and mutant kinases (313 kinase panel) (Homo sapiens, UniProt P22455, N535K); details: kinase FGFR4(N535K); compound at 1 μM
[5] = target: panel of more than 300 wild-type and mutant kinases (313 kinase panel) (Homo sapiens, UniProt Q5VT25)
[6] = target: panel of more than 300 wild-type and mutant kinases (313 kinase panel) (Homo sapiens, UniProt P49674)
[7] = target: panel of more than 300 wild-type and mutant kinases (313 kinase panel) (Homo sapiens, UniProt Q9Y3S1)
[8] = target: T3, panel of more than 300 wild-type and mutant kinases (313 kinase panel) (Homo sapiens, UniProt Q9BXA7)
T3 sequence (Q9BXA7 1-367): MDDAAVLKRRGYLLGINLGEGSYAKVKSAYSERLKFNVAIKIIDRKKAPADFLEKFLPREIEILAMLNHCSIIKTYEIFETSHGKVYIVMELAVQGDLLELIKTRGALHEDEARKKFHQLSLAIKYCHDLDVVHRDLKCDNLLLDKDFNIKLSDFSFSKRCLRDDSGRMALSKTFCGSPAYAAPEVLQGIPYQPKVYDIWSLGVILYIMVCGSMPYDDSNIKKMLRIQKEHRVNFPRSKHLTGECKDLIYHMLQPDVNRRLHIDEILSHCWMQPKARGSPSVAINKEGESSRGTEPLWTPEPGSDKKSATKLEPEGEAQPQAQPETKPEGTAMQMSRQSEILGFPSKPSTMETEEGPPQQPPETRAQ

[9] = kinase MAP3K3, compound at 1 μM

Chain of panel of more than 300 wild-type and mutant kinases (313 kinase panel) (Homo sapiens, UniProt P22455, N535K) (P22455 22-802 N535K): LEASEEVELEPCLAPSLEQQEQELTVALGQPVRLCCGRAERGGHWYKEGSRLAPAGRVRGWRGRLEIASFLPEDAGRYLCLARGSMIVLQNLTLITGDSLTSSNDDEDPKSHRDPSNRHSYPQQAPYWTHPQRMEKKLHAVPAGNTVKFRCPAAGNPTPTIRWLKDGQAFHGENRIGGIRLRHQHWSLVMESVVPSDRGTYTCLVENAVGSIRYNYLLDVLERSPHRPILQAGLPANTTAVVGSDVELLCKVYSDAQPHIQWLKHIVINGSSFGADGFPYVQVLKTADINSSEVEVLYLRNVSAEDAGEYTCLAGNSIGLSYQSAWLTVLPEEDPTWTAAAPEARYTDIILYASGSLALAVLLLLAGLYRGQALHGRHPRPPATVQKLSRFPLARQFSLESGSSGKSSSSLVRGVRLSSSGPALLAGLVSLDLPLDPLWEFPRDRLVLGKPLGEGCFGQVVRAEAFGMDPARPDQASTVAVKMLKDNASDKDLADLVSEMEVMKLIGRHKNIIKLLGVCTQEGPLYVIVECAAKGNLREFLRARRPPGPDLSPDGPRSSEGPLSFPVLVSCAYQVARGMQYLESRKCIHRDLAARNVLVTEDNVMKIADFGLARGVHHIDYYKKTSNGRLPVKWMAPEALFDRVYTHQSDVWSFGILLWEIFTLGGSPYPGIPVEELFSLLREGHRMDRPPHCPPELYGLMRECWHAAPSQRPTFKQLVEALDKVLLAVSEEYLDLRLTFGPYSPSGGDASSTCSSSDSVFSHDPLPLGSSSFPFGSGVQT

| SMILES | %-inhibition, ARG ([1]; kinase ARG, 1 μM compound) [%] | %-inhibition of MAP3K3 [2, 9] [%] | %-inhibition of SPHK2 ([3]; kinase SPHK2, 1 μM) [%] | %-inhibition of FGFR4(N535K) [4] [%] | %-inhibition of MRCKα ([5]; kinase MRCKα, 1 μM) [%] | %-inhibition, CK1ε ([6]; kinase CK1ε, 1 μM compound) [%] | %-inhibition of WNK2 ([7]; kinase WNK2, compound at 1 μM) [%] | %-inhibition of TSSK1 ([8]; kinase TSSK1, 1 μM) [%] | %-inhibition of MAP3K3 ([2]; 1 µM) [%] | %-inhibition of MRCKα ([5]; 1 µM) [%] | %-inhibition, CK1ε ([6]; 1 µM) [%] | %-inhibition, ARG ([1]; 1 µM) [%] | %-inhibition of SPHK2 ([3]; 1 µM) [%] | %-inhibition of WNK2 ([7]; 1 µM) [%] | %-inhibition of TSSK1 ([8]; 1 µM) [%] |
| --- | --- | --- | --- | --- | --- | --- | --- | --- | --- | --- | --- | --- | --- | --- | --- |
| CC(C)(C)c1nc(-c2cccc(NS(=O)(=O)c3c(F)cccc3F)c2F)c(-c2ccnc(N)n2)s1 [dabrafenib] | 54 | 6 | -14 | 8 | -1.84 | 10 | 0.686 | 8 | – | – | – | – | – | – | – |
| CCCS(=O)(=O)Nc1ccc(F)c(C(=O)c2c[nH]c3ncc(-c4ccc(Cl)cc4)cc23)c1F [vemurafenib] | 7 | 8 | 8 | 9 | 0.383 | 2.46 | 13 | -4 | – | – | – | – | – | – | – |
| CN(C)C/C=C/C(=O)Nc1cc2c(Nc3ccc(F)c(Cl)c3)ncnc2cc1O[C@H]1CCOC1 [afatinib] | – | – | -10 | – | – | – | – | – | – | – | – | – | – | – | – |
| Cc1nc(Nc2ncc(C(=O)Nc3c(C)cccc3Cl)s2)cc(N2CCN(CCO)CC2)n1 [dasatinib] | – | 88 | – | – | – | – | 20 | -4.66 | – | – | – | – | – | – | – |
| C[C@@H](Oc1cc(-c2cnn(C3CCNCC3)c2)cnc1N)c1c(Cl)ccc(F)c1Cl [crizotinib] | 80 | – | 8 | 6.5 | -8 | 4 | -4 | 21 | – | – | – | – | – | – | – |
| Cc1ccc(C(=O)Nc2ccc(CN3CCN(C)CC3)c(C(F)(F)F)c2)cc1C#Cc1cnc2cccnn12 [ponatinib] | 100 | 88 | 11 | – | -0.575 | – | 13 | -4 | – | – | – | – | – | – | – |
| O=S(=O)(c1cccc2cnccc12)N1CCCNCC1 [fasudil] | -7 | -14 | -21 | 0.156 | -2.54 | -4.62 | 1.45 | 26 | – | – | – | – | – | – | – |
| COc1cc(Nc2c(C#N)cnc3cc(OCCCN4CCN(C)CC4)c(OC)cc23)c(Cl)cc1Cl [bosutinib] | – | 91 | 4.4 | 30 | – | – | 4 | 29 | – | – | – | – | – | – | – |
| CO[C@H]1C[C@@H]2CC[C@@H](C)[C@@](O)(O2)C(=O)C(=O)N2CCCC[C@H]2C(=O)O[C@H]([C@H](C)C[C@@H]2CC[C@@H](OCCO)[C@H](OC)C2)CC(=O)[C@H](C)/C=C(\C)[C@@H](O)[C@@H](OC)C(=O)[C@H](C)C[C@H](C)/C=C/C=C/C=C/1C [everolimus] | 1.07 | 3.6 | 1.25 | 9 | -6 | -6.43 | -8 | -6 | – | – | – | – | – | – | – |
| Cc1ccc(Nc2nccc(N(C)c3ccc4c(C)n(C)nc4c3)n2)cc1S(N)(=O)=O [pazopanib] | 67 | 77 | 4 | – | -2.17 | 0 | 3 | -1.56 | – | – | – | – | – | – | – |
| CNC(=O)c1cc(Oc2ccc(NC(=O)Nc3ccc(Cl)c(C(F)(F)F)c3)c(F)c2)ccn1 [regorafenib] | 35 | 9 | -3.2 | 62 | -5 | -6 | -4.43 | -7 | – | – | – | – | – | – | – |
| CC(=O)Nc1cccc(-n2c(=O)n(C3CC3)c(=O)c3c(Nc4ccc(I)cc4F)n(C)c(=O)c(C)c32)c1 [trametinib] | -4 | -6.63 | -14 | -5.47 | -0.565 | -5.38 | 1.45 | -5 | – | – | – | – | – | – | – |
| CCN(CC)CCNC(=O)c1c(C)[nH]c(/C=C2\C(=O)Nc3ccc(F)cc32)c1C [sunitinib] | – | 76 | – | – | – | 45 | – | 85 | – | – | – | – | – | – | – |
| CS(=O)(=O)CCNCc1ccc(-c2ccc3ncnc(Nc4ccc(OCc5cccc(F)c5)c(Cl)c4)c3c2)o1 [lapatinib] | 11 | – | -4 | – | – | – | -5 | -3.21 | 4.75 | -2.49 | 1.64 | – | – | – | – |
| COc1cc2c(Nc3ccc(Br)cc3F)ncnc2cc1OCC1CCN(C)CC1 [vandetanib] | 94 | 9 | 5.7 | 81 | -6 | – | -4.29 | 2.66 | – | – | – | – | – | – | – |
| Cc1cn(-c2cc(NC(=O)c3ccc(C)c(Nc4nccc(-c5cccnc5)n4)c3)cc(C(F)(F)F)c2)cn1 [nilotinib] | – | – | 6 | – | -13 | 0.595 | -8 | -2.32 | -21 | – | – | 95 | – | – | – |
| C#Cc1cccc(Nc2ncnc3cc(OCCOC)c(OCCOC)cc23)c1 [erlotinib] | – | – | – | – | – | – | – | – | 17 | -6 | -2.38 | – | -2.22 | -7 | 3.5 |
